Patent US20070249637A1, “Inhibitors Of Hepatitis C Virus Protease, And Compositions And Treatments Using The Same” (priority 2004, published 2007)
Several values for one entry are separate records, joined by “and”; a condition that tells them apart may be missing. Equal entries are not always repeated. Where two headings read alike, the source gives them in different places.

How the values were obtained:
[1] = rcm bond, 15-membered ring, DCM, 40.0 °C
[2] = molecular target: T1, full-length NS3-NS4A enzyme (Hepatitis C virus genotype 1a, UniProt P27958); assay: HCV protease assay (continuous FRET, full-length enzyme); format: biochemical; settings: 3 nM full-length NS3-NS4A, 3 uM depsipeptide FRET substrate S1; competitive inhibition fit
T1 construct: 3 nM full-length NS3-NS4A enzyme
Protocol: HCV protease activity and compound inhibition was monitored using a continuous, fluorescence resonance energy transfer (FRET) assay. Test compounds at various concentrations were added to assay buffer (50 mM MOPS pH 7.5, 50 mM NaCl, 20% glycerol, 0.025% Triton-X 100, 1 mM tris(2-carboxyethyl)phosphine) containing 3 uM depsipeptide FRET substrate S1 (Anaspec) (see Taliani et al. Analytical Biochemistry, 240, 60-67 (1996)) in a white, non-binding 96-well plate (Corning). The reaction was started by the addition of 3 nM full-length NS3-NS4A enzyme. The increase in fluorescence intensity following peptide cleavage was monitored using a Safire fluorescence plate reader (Tecan). The excitation and emission wavelengths were 340 nm and 500 nm, respectively. Inhibition constants (KI) were calculated by non-linear regression analysis using an equation derived for competitive inhibition.

[3] = system: HCV dual reporter subgenomic replicon (B6b cell line); assay: HCV dual reporter subgenomic replicon assay, Renilla luciferase (antiviral activity); format: cell-based; settings: Hepatitis C virus, 72 h; 50% reduction of Renilla luciferase expression, 3 days incubation
Protocol: The compounds described herein were tested for antiviral activity utilizing a dual-reporter replicon assay as described in U.S. patent application Ser. No. 10/818,075 (the '075 application), filed Apr. 5, 2004. The disclosure of the '075 application is incorporated herein.
(§1) Cell-based antiviral activity was evaluated in the previously described HCV dual reporter subgenomic replicon system (the '075 application). With this system, the effects of a compound on both HCV replication and cell viability can be simultaneously determined by measuring the intracellular levels of two separate reporter proteins. The dicistronic selectable replicon contains the Renilla luciferase gene such that Renilla luciferase activity within stably-transfected cells serves as a marker of HCV replication. The firefly luciferase gene is stably integrated into and expressed by the Huh-7 host cells. Since firefly luciferase activity is dependent upon cellular transcription and translation, firefly luciferase activity serves as an indicator of cell viability.
(§2) The dual reporter selectable replicon cell line (B6b) was maintained in DMEM supplemented with 10% FBS, L-glutamine, non-essential amino acids, penicillin, streptomycin, and selection agents (200 ug/ml G418 and 6 ug/ml blastocidin). On the first day of the experiment, cells were trypsinized, washed, and diluted in medium lacking the selection agents. Cells were transferred to 96-well, black-walled, clear bottom plates at a density of 2×10^4 cells in 150 ul of medium per well. Cells were allowed to settle for 60 to 90 minutes while compounds were being prepared. Each compound was initially diluted to a 4× working stock (2.56% DMSO in tissue culture medium) that was then serially diluted nine times in half log increments in medium with 2.56% DMSO. Fifty microliters of each dilution were then added in triplicate to the plated cells in order to obtain final IX compound concentrations with 0.64% DMSO. Typical testing concentrations ranged from 320 uM to 10 nM. Control wells containing 0.64% DMSO without compound were also included on each plate.
(§3) After 3 days of incubation under humidity at 37° C. with 5% CO2, plates were microscopically examined for compound precipitation and cell death. Tissue culture medium was then aspirated and cells were lysed with 20 ul of 1× Passive Lysis Buffer (Promega, Madison, Wis.). Reporter activity was measured using a MicroBeta Jet 1450 (Perkin Elmer, Boston, Mass.) following sequential 50 ul additions of firefly and Renilla luciferase substrates as described in the manufacturers protocol (Promega). Luciferase activities were expressed as a percentage of the signals observed in the compound-free control wells. The amount of compound required to reduce Renilla luciferase expression by 50% is defined as the 50% effective concentration, or EC50. The amount of compound that reduces firefly luciferase expression by 50% is defined as the 50% cytotoxic concentration, or CC50. A therapeutic index (TI) is calculated by dividing the CC50 by the EC50.

[4] = in vitro; format: cell-based; settings: human; 50% reduction of firefly luciferase expression, 3 days incubation; read-out: Replicon CC50
Protocol: as §1, §2, §3

T1 sequence (P27958 1027-1657): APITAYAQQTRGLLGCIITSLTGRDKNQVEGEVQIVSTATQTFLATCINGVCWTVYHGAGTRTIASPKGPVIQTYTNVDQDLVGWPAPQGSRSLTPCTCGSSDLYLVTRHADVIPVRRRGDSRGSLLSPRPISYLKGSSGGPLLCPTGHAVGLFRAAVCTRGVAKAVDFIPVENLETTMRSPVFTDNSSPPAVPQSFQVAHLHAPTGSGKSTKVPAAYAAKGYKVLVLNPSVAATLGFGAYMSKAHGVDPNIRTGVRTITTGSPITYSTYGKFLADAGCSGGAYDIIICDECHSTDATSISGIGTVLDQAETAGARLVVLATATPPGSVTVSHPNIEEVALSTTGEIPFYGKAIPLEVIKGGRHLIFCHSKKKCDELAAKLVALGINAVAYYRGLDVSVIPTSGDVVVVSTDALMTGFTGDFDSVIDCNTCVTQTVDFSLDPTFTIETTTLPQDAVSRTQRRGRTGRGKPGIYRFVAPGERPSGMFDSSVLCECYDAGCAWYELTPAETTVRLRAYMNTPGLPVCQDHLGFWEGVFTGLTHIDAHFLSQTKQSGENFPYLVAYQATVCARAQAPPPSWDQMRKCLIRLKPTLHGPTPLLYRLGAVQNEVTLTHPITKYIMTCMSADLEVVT
T1 sequence (P27958 1658-1711): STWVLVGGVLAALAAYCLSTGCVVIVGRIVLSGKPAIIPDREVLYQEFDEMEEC

SMILES: COC(=O)[C@@]12C[C@H]1/C=C\CCCCC[C@H](NC(=O)OC(C)(C)C)C(=O)N1C[C@H](Oc3nc(-c4ccccn4)nc4ccsc34)C[C@H]1C(=O)N2
- ring closure, isolated yield ([1]; from C=CCCCCC[C@H](NC(=O)OC(C)(C)C)C(=O)N1C[C@H](Oc2nc(-c3ccccn3)nc3ccsc23)C[C@H]1C(=O)N[C@]1(C(=O)OC)C[C@H]1C=C, Grubbs II (0.15 equiv), 5.0 mM, 2.0 h): 25%

SMILES: COC(=O)[C@@]12C[C@H]1/C=C\CCCCCC(NC(=O)OC(C)(C)C)C(=O)N1C[C@H](Oc3cc(-c4ccccn4)nc4ccsc34)C[C@H]1C(=O)N2 (some centres unmarked)
- ring closure, isolated yield ([1]; from C=CCCCCCC(NC(=O)OC(C)(C)C)C(=O)N1C[C@H](Oc2cc(-c3ccccn3)nc3ccsc23)C[C@H]1C(=O)N[C@]1(C(=O)OC)C[C@H]1C=C, Grubbs II (0.25 equiv), 2.0 mM, 4.0 h): 24%

SMILES: O=C(N[C@H]1CCCCC/C=C\[C@@H]2C[C@@]2(C(=O)O)NC(=O)[C@@H]2C[C@@H](Oc3nc(-c4ccccn4)nc4sccc34)CN2C1=O)OC1CCCC1 [Example 26, (2R,6S,12Z,13aS,14aR,16aS)-6-{[(Cyclopentyloxy)carbonyl]amino}-5,16-dioxo-2-[(2-pyridin-2-ylthieno[2,3-d]pyrimidin-4-yl)oxy]-1,2,3,6,7,8,9,10,11,13a,14,15,16,16a-tetradecahydrocyclopropa[e]pyrrolo[1,2-a][1,4]diazacyclopentadecine-14a(5H)-carboxylic acid]
- Ki [2]: 8.5 nM
- EC50 [3]: 100 nM
- CC50 at 3 days [4]: 117000 nM

SMILES: O=C(N[C@H]1CCCCC/C=C\[C@@H]2C[C@@]2(C(=O)O)NC(=O)[C@@H]2C[C@@H](Oc3nc(-c4ccccn4)nc4ccsc34)CN2C1=O)OC1CCCC1 [Example 41, (2R,6S,12Z,13aS,14aR,16aS)-6-{[(cyclopentyloxy)carbonyl]amino}-5,16-dioxo-2-[(2-pyridin-2-ylthieno[3,2-d]pyrimidin-4-yl)oxy]-1,2,3,6,7,8,9,10,11,13a,14,15,16,16a-tetradecahydrocyclopropa[e]pyrrolo[1,2-a][1,4]diazacyclopentadecine-14a(5H)-carboxylic acid]
- Ki [2]: 5.2 nM
- EC50 [3]: 34 nM
- CC50 at 3 days [4]: 87000 nM

SMILES: O=C(CC1CC1)N[C@H]1CCCCC/C=C\[C@@H]2C[C@@]2(C(=O)O)NC(=O)[C@@H]2C[C@@H](Oc3cc(-c4ccccn4)nc4ccsc34)CN2C1=O [Example 16, (2R,6S,12Z,13aS,14aR,16aS)-6-[(Cyclopropylacetyl)amino]-5,16-dioxo-2-[(5-pyridin-2-ylthieno[3,2-b]pyridin-7-yl)oxy]-1,2,3,6,7,8,9,10,11,13a,14,15,16,16a-tetradecahydrocyclopropa[e]pyrrolo[1,2-a][1,4]diazacyclopentadecine-14a(5H)-carboxylic acid]
- Ki [2]: 11 nM
- EC50 [3]: 140 nM
- CC50 at 3 days [4]: 251000 nM

SMILES: CC(C)(C)OC(=O)N[C@H]1CCCCC/C=C\[C@@H]2C[C@@]2(C(=O)O)NC(=O)[C@@H]2C[C@@H](Oc3nc(-c4ccccn4)nc4ccsc34)CN2C1=O [Example 44, (2R,6S,12Z,13aS,14aR,16aS)-6-[(Tert-butoxycarbonyl)amino]-5,16-dioxo-2-[(2-pyridin-2-ylthieno[3,2-d]pyrimidin-4-yl)oxy]-1,2,3,6,7,8,9,10,11,13a,14,15,16,16a-tetradecahydrocyclopropa[e]pyrrolo[1,2-a][1,4]diazacyclopentadecine-14a(5H)-carboxylic acid]
- Ki [2]: 20 nM
- EC50 [3]: 150 nM
- CC50 at 3 days [4]: 159000 nM

SMILES: O=C(N[C@H]1CCCCC/C=C\[C@@H]2C[C@@]2(C(=O)O)NC(=O)[C@@H]2C[C@@H](Oc3cc(-c4ccccn4)nc4ccsc34)CN2C1=O)OC1CCCC1 [Example 11, (2R,12Z,13aS,14aR,16aS)-6-{[(cyclopentyloxy)carbonyl]amino}-5,16-dioxo-2-[(5-pyridin-2-ylthieno[3,2-b]pyridin-7-yl)oxy]-1,2,3,6,7,8,9,10,11,13a,14,15,16,16a-tetradecahydrocyclopropa[e]pyrrolo[1,2-a][1,4]diazacyclopentadecine-14a(5H)-carboxylic acid]
- Ki [2]: 6.6 nM
- EC50 [3]: 110 nM
- CC50 at 3 days [4]: 86000 nM

SMILES: O=C(N[C@H]1CCCCC/C=C\[C@@H]2C[C@@]2(C(=O)O)NC(=O)[C@@H]2C[C@@H](Oc3nc(-c4ccccn4)nc4sccc34)CN2C1=O)OC1CCC1 [Example 28, (2R,6S,12Z,13aS,14aR,16aS)-6-{[(cyclobutyloxy)carbonyl]amino}-5,16-dioxo-2-[(2-pyridin-2-ylthieno[2,3-d]pyrimidin-4-yl)oxy]-1,2,3,6,7,8,9,10,11,13a,14,15,16,16a-tetradecahydrocyclopropa[e]pyrrolo[1,2-a][1,4]diazacyclopentadecine-14a(5H)-carboxylic acid]
- Ki [2]: 21 nM
- EC50 [3]: 420 nM
- CC50 at 3 days [4]: 59000 nM

SMILES: Cc1cc(-c2nc(O[C@@H]3C[C@H]4C(=O)N[C@]5(C(=O)O)C[C@H]5/C=C\CCCCC[C@H](NC(=O)O[C@H]5CCOC5)C(=O)N4C3)c3sccc3n2)n(C)n1 [Example 65, (2R,6S,12Z,13aS,14aR,16aS)-2-{[2-(1,3-Dimethyl-1H-pyrazol-5-yl)thieno[3,2-d]pyrimidin-4-yl]oxy}-5,16-dioxo-6-({[(3S)-tetrahydrofuran-3-yloxy]carbonyl}amino)-1,2,3,6,7,8,9,10,11,13a,14,15,16,16a-tetradecahydrocyclopropa[e]pyrrolo[1,2-a][1,4]diazacyclopentadecine-14a(5H)-carboxylic acid]
- Ki [2]: 10.3 nM and 7.9 nM
- EC50 [3]: 2600 nM
- CC50 at 3 days [4]: > 320000 nM

SMILES: Cn1ccnc1-c1cc2nccc(O[C@@H]3C[C@H]4C(=O)N[C@]5(C(=O)O)C[C@H]5/C=C\CCCCC[C@H](NC(=O)OC5CCCC5)C(=O)N4C3)c2s1 [Example 89, (2R,6S,12Z,13aS,14aR,16aS)-6-{[(Cyclopentyloxy)carbonyl]amino}-2-{[2-(1-methyl-1H-imidazol-2-yl)thieno[3,2-b]pyridin-7-yl]oxy}-5,16-dioxo-1,2,3,6,7,8,9,10,11,13a,14,15,16,16a-tetradecahydrocyclopropa[e]pyrrolo[1,2-a][1,4]diazacyclopentadecine-14a(5H)-carboxylic acid]
- Ki [2]: 14 nM and 13 nM
- EC50 [3]: 500 nM
- CC50 at 3 days [4]: > 320000 nM

SMILES: Cn1ccnc1-c1cc2nccc(O[C@@H]3C[C@H]4C(=O)N[C@]5(C(=O)O)C[C@H]5/C=C\CCCCC[C@H](NC(=O)OC(C)(C)C)C(=O)N4C3)c2s1 [Example 86, (2R,6S,12Z,13aS,14aR,16aS)-6-[(tert-butoxycarbonyl)amino]-2-{[2-(1-methyl-1H-imidazol-2-yl)thieno[3,2-b]pyridin-7-yl]oxy}-5,16-dioxo-1,2,3,6,7,8,9,10,11,13a,14,15,16,16a-tetradecahydrocyclopropa[e]pyrrolo[1,2-a][1,4]diazacyclopentadecine-14a(5H)-carboxylic acid]
- Ki [2]: 69 nM
- EC50 [3]: 15000 nM
- CC50 at 3 days [4]: > 320000 nM

SMILES: Cc1cc(-c2nc(O[C@@H]3C[C@H]4C(=O)N[C@]5(C(=O)O)C[C@H]5/C=C\CCCCC[C@H](NC(=O)OC5CCC5)C(=O)N4C3)c3sccc3n2)n(C)n1 [Example 60, (2R,6S,12Z,13aS,14aR,16aS)-6-{[(Cyclobutyloxy)carbonyl]amino}-2-{[2-(1,3-dimethyl-1H-pyrazol-5-yl)thieno[3,2-d]pyrimidin-4-yl]oxy}-5,16-dioxo-1,2,3,6,7,8,9,10,11,13a,14,15,16,16a-tetradecahydrocyclopropa[e]pyrrolo[1,2-a][1,4]diazacyclopentadecine-14a(5H)-carboxylic acid]
- Ki [2]: 6.7 nM
- EC50 [3]: 700 nM
- CC50 at 3 days [4]: 222000 nM
